Results published in US20070293458A1, “Prevention of nuclear, solar, and other radiation-induced tissue damage” (IP-6 Research Inc., priority 2006, published 2007).
“Also recorded” adds a separate entry of the source.

What was measured:
Assay type in all cases: cell-based, human
HaCaT cells [1] = assay: Cell attachment (crystal violet absorbance) after UVB radiation
Protocol: 5×10^4 HaCaT cells were seeded into each well of four 6-well tissue culture plates and incubated at 37° C. and 5% CO2 for 24 hours. One hour before UVB irradiation, two plates were treated with IP-6 (0 and 0.1 mM), one for IP-6 pre-treatment and the other for IP-6 pre-treatment and post-treatment. All four plates were then washed twice with PBS 1×, and a small amount of PBS 1× was added to the wells, which were irradiated at 30 mJ/cm^2. After UVB exposure, PBS was removed from the wells and DMEM media was added to each well. IP-6 (0.05 and 0.1 mM) was then added to the plates labeled no UVB exposure, IP-6 post-treatment, and pre-treatment and post-treatment. The cells were then incubated (37° C. and 5% CO2) for 18 hours. Following incubation, the cells were washed 4 times with PBS 1× (pH 7.4), then fixed with 4.0% formaldehyde for 15 minutes, and stained with 0.5% aqueous crystal violet for at least 5 minutes. Excess crystal violet was washed from the wells and the plates were left to dry. The dried crystal violet residue in each well was then dissolved in 500 μL of 30% acetic acid. The absorbance was read at 595 nm in triplicate in a 96-well plate using an EL Ultra Micro-plate Reader. Additionally, 5×10^4 HaCaT cells were plated into each well of ten 6-well plates as was done above. Before UVB irradiation, cells were washed twice with PBS 1×, and a small amount of PBS 1× was added to the wells. Cells were then exposed to no UVB, or 15, 30, 60, or 120 mJ/cm^2 intensities. Following exposure, cell media was added to the wells and cells were treated with IP-6 (0-2.0 mM). The cells were then incubated at 37° C. and 5% CO2. 18 hours after UVB exposure, cells were fixed with 4% formaldehyde, stained with 0.5% aqueous crystal violet and dissolved with 30% acetic acid as was done above. The absorbance was read in triplicate at 595 nm.

HaCaT cells [2] = assay: MTT assay of cell viability and proliferation after UVB radiation
Protocol: The human keratinocyte (HaCaT) cells were grown in Dulbecco's Modified Eagle's Medium containing 7 mg/L of inositol (38.8 μM), supplemented with 10% heat-inactivated fetal bovine serum, 1% L-glutamine, and 1% antibiotic (penicillin, streptomycin). Cells were maintained at 37° C. and 5% CO2. Na-IP-6 was diluted from a 100 mM stock solution to the required concentrations (0.05-2.0 mM) using cell culture medium as the diluent. UVB intensities of 15, 30, 60 and 120 mJ/cm^2 were used, which was obtained by varying cell exposure time to UVB light (80% of light output is in 290-320 nm UVB range).
HaCaT cells were grown to approximately 80-90% confluency. 100 μL of 1×10^4 cells/mL HaCaT cells were seeded into each well of four 96-well plates. Cells were treated with IP-6 (0-2.0 mM), and on days 0, 1, 2, and 3, 100 μL of 1 mg/mL of aqueous MTT dissolved in DMEM media was added to each well and plates were placed into the incubator (37° C. and 5% CO2) for 4 hours. 150 μL of DMSO was then added to dissolve the formazan products. The absorbance was read at 540 nm using an EL Ultra Micro-plate Reader. Results were recorded as mean absorbance for each set of groups. […]
To determine if IP-6 protects HaCaT cells from UVB-induced injury, The MTT assay was performed as done above. […] Results were recorded as the mean absorbance for each set of groups.

HaCaT cells [3] = assay: Cell cycle distribution by PI flow cytometry after UVB radiation
Protocol: (§1) HaCaT cells were plated in 60 mm tissue culture dishes for 24 hours. The cells were then either not exposed, or exposed, to 30 mJ/cm^2 UVB radiation and treated immediately with 0, 0.5 mM, or 1.0 mM IP-6. Cells were harvested 6 and 18 hours after UVB exposure. 5 μL of RNase (DNase-free) was added to 10^6 cells/mL. The cell suspension was incubated at 37° C. for 30 minutes. The suspension was then chilled on ice (2-8° C.). 100 μL of PI was added to the cell suspension (Cellular DNA flow cytometric analysis kit, Roche Diagnostics, Indianapolis, Ind.). DNA quantitation was performed on the same day by flow cytometry using FACS.

[4] = test system: caspase-3 activation of HaCaT cells; assay: Fluorometric CaspACE assay of activated caspase-3 activity
Protocol: FIG. 4. Effect of IP-6 and UVB radiation on caspase-3 activation of HaCaT cells. To assess activated caspase-3 activity, cells were either not exposed or exposed to 30 mJ/cm^2 UVB radiation, and then either treated with 1.0 mM Na-IP-6 or not treated with IP-6. Eighteen hours later, cells were harvested and fluorometric CaspACE assays were performed. Activated caspase-3 activity is represented as relative fluorescence units. **Significant at p<0.01, as compared to the group exposed to UVB but not treated with IP-6. The concentration of inositol in the media is 38.8 μM.
HaCaT cells were plated in 60 mm tissue culture dishes for 24 hours. The cells were either exposed to 30 mJ/cm^2 UVB radiation or not exposed. […] 10 μL of sample was then combined with caspase assay buffer (312.5 mM HEPES (pH 7.5), 31.25% sucrose, 0.3125% CHAPS (3-[(3-cholamido-propyl)-dimethyl ammonio]-1 propane-sulfonate, 2% DMSO, 10 mM DTT) containing 50 μM caspase-3 substrate, Ac-DEVD-AMC, in white 96 well microtiter plates. Negative control wells included 2 μL of 2.5 mM specific peptide inhibitor of caspase-3 (Ac-DEVD-CHO). The plate was incubated at 30° C. for 1 hour. The free reaction product, AMC was then measured using a fluorescent plate reader with an excitation wavelength of 360 nm and an emission wavelength of 460 nm. Caspase-3 activity was reported as relative fluorescent intensity of AMC.

HaCaT cells [5] = assay: Annexin V and PI staining, flow cytometry (apoptotic, necrotic, viable cells) after UVB radiation; conditions: UVB-exposed
Protocol: as §1, with “FIG. 3. Effect of IP-6 and UVB radiation on cell cycle distribution of HaCaT cells. For annexin V and PI staining cells were either not exposed or exposed to 30 mJ/cm^2 UVB radiation, then either treated with 1.0 mM Na-IP-6 or not treated with IP-6. Eighteen hours later, cells were harvested and double stained with annexin V and PI and analyzed by flow cytometry. The number of cells that are present in apoptosis, necrosis or are viable are represented as percentages; p<0.001, as compared to the group exposed to UVB but not treated with IP-6. The concentration of inositol in the media is 38.8 μM. HaCaT” for “HaCaT”

[6] = 0.5 mM IP-6, vs UVB without IP-6
[7] = 0.5 and 1.0 mM IP-6, vs UVB without IP-6, p<0.001

`O=P(O)(O)O[C@H]1[C@H](OP(=O)(O)O)[C@@H](OP(=O)(O)O)[C@H](OP(=O)(O)O)[C@@H](OP(=O)(O)O)[C@H]1OP(=O)(O)O` [IP-6, inositol hexaphosphate] was tested, and the cell attachment (HaCaT cells [1]; UVB 15 mJ/cm^2, 18 h, higher IP-6 concentrations (1.0 and 2.0 mM), vs non-IP-6 treated group) was “decrease in cell attachment”, the cell attachment (HaCaT cells [1]; UVB 15 mJ/cm^2, 18 h, lower IP-6 concentrations, vs non-IP-6 treated group) was “increase in cell attachment” and the cell attachment (HaCaT cells [1]; UVB 30 mJ/cm^2, 18 h, vs irradiated cells without IP-6, p<0.01 (FIG. 2: 0.5, 1.0 and 2.0 mM)) was “significant increase in HaCaT cell attachment with increasing concentrations of IP-6”. The cell attachment (HaCaT cells [1]; UVB 60 mJ/cm^2, 18 h, vs irradiated cells without IP-6) was “decrease in cell attachment”, the cell attachment (HaCaT cells [1]; UVB 120 mJ/cm^2, 18 h, vs irradiated cells without IP-6) was “decrease in cell attachment” and the “cell viability and proliferation (MTT)” value (HaCaT cells [2]; UVB 15-120 mJ/cm^2, IP-6 0-2.0 mM added immediately after UVB, read 24 h later, p<0.001) was “increase in cell viability with increasing concentration of IP-6; also recorded: significant increase in relative cell viability with increasing IP-6 concentrations”. For the same molecule, the “cell viability (MTT), normal trend” value (HaCaT cells [2]; normal trend with higher IP-6 concentration (without the UVB effect)) was “decrease in cell viability with higher concentration of IP-6”, the “G2M phase, 1.0 mM vs 0.5 mM treatment” value (HaCaT cells [3]; 18 hours after UVB 30 mJ/cm^2) was “comparable” and the “effect on different phases of the cell cycle, 6 vs 18 hour” value (HaCaT cells [3]; UVB 30 mJ/cm^2, IP-6 0.5 or 1.0 mM) was “no time-dependent differences”. The “activated caspase-3 activity” value ([4]; 1.0 mM IP-6, no UVB, 18 hours, vs control group) was “increase in activated caspase-3 activity”, the “activated caspase-3 activity” value ([4]; UVB 30 mJ/cm^2 + 1.0 mM IP-6, 18 hours, vs UVB without IP-6, p<0.01) was “significantly lowered” and the “percentage of apoptotic cells” value (HaCaT cells [5]; [6]) was “significant decrease”. For the same molecule, the “percentage of necrotic cells” value (HaCaT cells [5]; [6]) was “significant decrease”, the “percentage of viable cells” value (HaCaT cells [5]; [6]) was “significant increase” and the “apoptotic, necrotic and viable cells, effects relative to 0.5 mM” value (HaCaT cells [5]; 1.0 mM IP-6) was “much more pronounced”. For the same molecule, the “apoptotic cells, dose dependence” value (HaCaT cells [5]; [7]) was “dose-dependent decrease”, the “necrotic cells, dose dependence” value (HaCaT cells [5]; [7]) was “dose-dependent decrease” and the viable cells (HaCaT cells [5]; [7]) was “increase in viable cells”.
